Experimental data: EPA's ToxValDB 9.5
Several values for one entry are separate records, joined by “and”; a condition that tells them apart may be missing. Identical values can stand only once.

Legend:
[1] = test system: Rattus norvegicus; conditions: for LD50: acute
[2] = test system: Canidae; conditions: for NOAEL: diet, M/F, Beagle
[3] = subchronic, duration: 90 days, oral, diet
[4] = subchronic, duration: 90 days, oral, gavage, M/F, body weight
[5] = subchronic, duration: 90 days, oral, diet, M/F, no effects
[6] = subchronic, duration: 13 weeks, oral, gavage, M/F, Crj:CD, no effects
[7] = subchronic, duration: 90 days, oral
[8] = subchronic, duration: 90 days, oral, diet, M/F, Sprague-Dawley, histopathology: nonneoplastic
[9] = subchronic, duration: 13 weeks, oral, gavage
[10] = subchronic, duration: 90 days, no effects
[11] = subchronic, duration: 90 days, oral, M/F, Sprague-Dawley, histopathology: neoplastic
[12] = subchronic, duration: 90 days, oral, gavage, M, hematological
[13] = subchronic, duration: 90 days, oral, diet, M/F, Wistar, no effects
[14] = subchronic, duration: 90 days, clinical chemistry

CC(C)[C@@H]1CC[C@@H](C)C[C@@H]1NC(=O)C1CC1
NOAEL ([1]; subchronic, duration: 90 days, oral, diet, M/F, Sprague-Dawley, body weight): 147 mg/kg-day

CC(C)(C)c1ccc(OP(Oc2ccc(C(C)(C)C)cc2C(C)(C)C)Oc2ccc(C(C)(C)C)cc2C(C)(C)C)c(C(C)(C)C)c1 [Tris(2,4-di-tert-butylphenyl) phosphite]
NOAEL ([1]; chronic, duration: 2 years, oral, no effects): 58 mg/kg-day

NC[C@@H]1O[C@H](O[C@H]2[C@@H](O)[C@H](O[C@@H]3[C@@H](O)[C@H](N)C[C@H](N)[C@H]3O[C@H]3O[C@H](CO)[C@@H](O)[C@H](O)[C@H]3N)O[C@@H]2CO)[C@H](N)[C@@H](O)[C@@H]1O.O=S(=O)(O)O [Paromomycin sulfate]
NOEL ([2]; chronic, oral, Dog Other): 3.4 mg/kg-day

CC1=C(/C=C/C(C)=C/C=C/C(C)=C/C=C/C=C(C)/C=C/C=C(C)/C=C/C2=C(C)C[C@@H](O)CC2(C)C)C(C)(C)C[C@H](O)C1 [Zeaxanthin]
NOAEL ([1]; reproduction developmental, oral, M/F, reproduction): 150 mg/kg-day

O=C1CCCCCN1 [Caprolactam]
NOEL [1, 3]: 750 mg/kg-day

OCCc1ccc(O)c(O)c1 [3,4-Dihydroxyphenylethanol]
NOAEL [1, 4]: 50 mg/kg-day
NOAEL ([1]; subchronic, duration: 90 days, oral, gavage, Wistar, body weight): 250 mg/kg-day

CC1=NCCS1 [Thiazole, 4,5-dihydro-2-methyl-]
NOAEL ([1]; subchronic, duration: 90 days): 1.8 mg/kg-day
NOAEL [1, 5]: 1.8 mg/kg-day

NC(N)=O [Urea]
LD50 ([1]; oral, mortality): 14300 mg/kg-day
NOEL ([1]; reproduction developmental, reproduction): 2250 mg/kg-day

COc1cccc(OC)c1 [1,3-Dimethoxybenzene]
NOAEL ([1]; subchronic, duration: 90 days, oral, no effects): 10 mg/kg-day

CSc1nccnc1C(C)C [Pyrazine, 2-(1-methylethyl)-3-(methylthio)-]
NOAEL ([1]; subchronic, duration: 13 weeks, oral, diet, M/F, no effects): 1.63 mg/kg-day

CC1SCCSS1 (stereo not drawn) [1,2,4-Trithiane, 3-methyl-]
NOEL ([1]; subchronic, duration: 13 weeks, oral, diet): 0.3 mg/kg-day

NCCS(=O)(=O)O [l-Taurine]
NOAEL [1, 6]: 1000 mg/kg-day

CCC=C1OC(=O)c2ccccc21 [3-Propylidenephthalide]
NOAEL [1, 7]: 5.42 mg/kg-day

C/C=C/C=C\CC/C=C/C(=O)NCC(C)C [(E,Z,E)-N-(2-Methylpropyl)-2,6,8-decatrienamide]
NOAEL [1, 8]: 23.4 mg/kg-day

CC(O)c1ccccc1 (stereo not drawn) [alpha-Methylbenzyl alcohol]
LOAEL [1, 9]: 93 mg/kg-day

Cc1ccc(OCC(=O)N(Cc2cccs2)c2ccn[nH]2)cc1
NOAEL ([1]; reproduction developmental, oral, gavage, F, no effects): 1000 mg/kg-day
NOAEL ([1]; subchronic, duration: 13 weeks, oral, gavage, M/F, no effects): 100 mg/kg-day

CC1COC(C)O1 (stereo not drawn) [2,4-Dimethyl-1,3-dioxolane]
NOEL ([1]; chronic, duration: 2 years): 2500 mg/kg-day

CCOC(=O)c1ccccc1O [Ethyl salicylate]
NOAEL ([1]; chronic, duration: 2 years, oral, growth): 50 mg/kg-day

Cc1noc(C)c1Cn1cc(N2C(=O)CN(Cc3cccc(O)c3)C2=O)cn1
NOAEL ([1]; subchronic, duration: 13 weeks, oral, diet, no effects): 100 mg/kg-day

OCc1c[nH]c2ccccc12 [Indole-3-carbinol]
NOAEL ([1]; chronic, duration: 37 weeks, oral, diet, M, no effects): 50 mg/kg-day

CC(=O)N[C@H]1[C@H](O[C@H]2[C@@H](O)[C@@H](CO)O[C@@H](O[C@H]3[C@H](O)[C@@H](O)C(O)O[C@@H]3CO)[C@@H]2O)O[C@H](CO)[C@@H](O)[C@@H]1O[C@@H]1O[C@H](CO)[C@H](O)[C@H](O)[C@H]1O (stereo partly drawn) [Lacto-N-tetraose]
NOAEL ([1]; subchronic, duration: 90 days, oral, M/F, Wistar): 5000 mg/kg-day

C=CO.OCCO
NOAEL ([2]; chronic, duration: 9 months, oral, no effects): 800 mg/kg-day

CC1OCCC1=O (stereo not drawn) [2-Methyltetrahydrofuran-3-one]
NOAEL [1, 10]: 91 mg/kg-day

CCC[CH2][Sn]([CH2]CCC)([CH2]CCC)[O][Sn]([CH2]CCC)([CH2]CCC)[CH2]CCC [Bis(tributyltin)oxide]
NOAEL ([1]; chronic, duration: 2 years, oral, diet, M/F, Wistar, histopathology: neoplastic): 0.025 mg/kg-day

CC(=O)c1ccc[nH]1 [2-Acetylpyrrole]
NOAEL [1, 11]: 0.048 mg/kg-day
NOAEL [1, 8]: 48 mg/kg-day
NOAEL [1, 12]: 48 mg/kg-day

C=C(C)C1CC=C(C)CC1 (stereo not drawn) [Limonene]
NOAEL ([1]; chronic, duration: 103 weeks, oral, gavage, F, mortality): 215 mg/kg-day
NOEL ([1]; subchronic, duration: 13 weeks, histopathology: nonneoplastic): 10 mg/kg-day

Oc1ccccc1 [Phenol]
NOAEL ([1]; developmental, duration: 10 days, oral, gavage, F, Sprague-Dawley, development): 120 mg/kg-day
NOAEL ([1]; reproduction developmental, duration: 10 days, oral, gavage, F, body weight): 60 mg/kg-day

COC(=O)[C@H](Cc1ccccc1)NC(=O)[C@H](CC(=O)O)NCCC(C)(C)C [Neotame]
NOAEL ([2]; chronic, duration: 52 weeks, oral, clinical chemistry): 200 mg/kg-day

CCCC(C)=O [2-Pentanone]
NOAEL ([1]; subchronic, duration: 13 weeks, oral, gavage, M/F, organ weight): 20 mg/kg-day

SCc1ccccn1 [2-Pyridinemethanethiol]
NOAEL [1, 3]: 3.4 mg/kg-day

CCCSSSCCC [Dipropyl trisulfide]
NOEL [1, 9]: 4.8 mg/kg-day

[Cl][Sn][Cl] [Stannous chloride]
NOAEL ([1]; subchronic, duration: 90 days, oral, diet, M/F, Wistar, body weight): 63 mg/kg-day

CC1=C(C=O)C(C)(C)CC=C1 [Safranal]
LEL ([2]; subchronic, duration: 90 days, Dog Other, no effects): 120 mg/kg-day
NOEL ([1]; subchronic, duration: 90 days): 10 mg/kg-day
LEL ([1]; subchronic, duration: 90 days, oral, gavage, F, no effects): 120 mg/kg-day

C=C=CC(C)C(=O)OCC (stereo not drawn) [3,4-Pentadienoic acid, 2-methyl-, ethyl ester]
NOAEL ([1]; chronic, duration: 92 days): 1 mg/kg-day

CCCCCCCCCCCC(=O)N[C@@H](CCCN=C(N)N)C(=O)OCC [N alpha-Lauroyl-L-arginine ethyl ester]
NOAEL ([1]; subchronic, duration: 13 weeks, oral, M/F, Sprague-Dawley, clinical chemistry): 47 mg/kg-day

C/C=C/C=C/C(=O)O [2E,4E-Hexadienoic acid]
NOAEL ([1]; reproduction developmental, oral, gavage, M/F, Crj:CD, body weight): 300 mg/kg-day

CSSSCc1ccco1 [2-[(Methyltrisulfanyl)methyl]furan]
NOAEL [1, 13]: 0.56 mg/kg-day

COc1ccc(C=CC(=O)NCCc2ccc(OC)c(OC)c2)cc1OC
NOAEL ([1]; subchronic, duration: 90 days, oral, diet, M/F, Sprague-Dawley, hematological): 23 mg/kg-day

O=C([O-])c1ccccn1.O=C([O-])c1ccccn1.O=C([O-])c1ccccn1.[Cr+3] [Chromium picolinate]
NOAEL ([1]; chronic, duration: 2 years, M/F, Fischer 344, no effects): 2400 mg/kg-day

Clc1ccc(-c2ccc(Cl)c(Cl)c2Cl)c(Cl)c1Cl [2,2',3,3',4,4'-Hexachlorobiphenyl]
NOAEL [1, 14]: 0.8 mg/kg-day

O=C(O)c1ccc(C(=O)O)o1 [2,5-Furandicarboxylic acid]
NOAEL ([1]; subchronic, duration: 90 days, oral, gavage, M/F, Wistar, body weight): 300 mg/kg-day

SCCCCS [1,4-Butanedithiol]
NOAEL ([1]; subchronic, duration: 90 days, oral, diet, M/F, Sprague-Dawley, no effects): 0.703 mg/kg-day (5×) and 0.705 mg/kg-day (5×)

Cc1cccc(C)c1N(Cn1cccn1)C(=O)CCl [Metazachlor]
NOAEL ([1]; chronic, duration: 2 years, organ weight): 8.5 mg/kg-day
NOAEL ([1]; developmental, development): 50 mg/kg-day
NOAEL ([1]; subchronic, duration: 90 days, oral, organ weight): 21 mg/kg-day

Cc1c(C)c2c(c(C)c1OC(=O)CCC(=O)O)CC[C@@](C)(CCC[C@H](C)CCC[C@H](C)CCCC(C)C)O2 [d-alpha-Tocopheryl succinate]
NOAEL [1, 14]: 265 mg/kg-day

Cc1cc2nc3c(=O)[nH]c(=O)nc-3n(C[C@H](O)[C@H](O)[C@H](O)CO)c2cc1C [Riboflavin]
NOAEL ([1]; subchronic, duration: 90 days, M/F, Wistar, no effects): 160 mg/kg-day

CSSc1cc(C)oc1C [2,5-Dimethyl-3-(methyldisulfanyl)furan]
NOAEL [1, 13]: 5 mg/kg-day

CCCCCO [1-Pentanol]
NOAEL ([1]; subchronic, duration: 90 days, oral, gavage, no effects): 1000 mg/kg-day

CSCc1ccccc1 [Benzyl methyl sulfide]
NOAEL [1, 7]: 0.43 mg/kg-day

CCOC(C)(C)C [Ethyl t-butyl ether]
NOAEL ([1]; chronic, duration: 6 months, oral, gavage, M/F, Sprague-Dawley, organ weight): 100 mg/kg-day

CCCCC(CC)COC(=O)c1ccc(N(C)C)cc1 (stereo not drawn) [2-Ethylhexyl 4-(dimethylamino)benzoate]
NOAEL ([1]; short-term, duration: 4 weeks, M/F, histopathology: nonneoplastic): 100 mg/kg-day

CC(=O)SCc1ccco1 [S-Furfuryl thioacetate]
NOAEL [1, 4]: 3 mg/kg-day

Cc1occc1SC(C)CC=O (stereo not drawn) [3-[(2-Methylfuran-3-yl)sulfanyl]butanal]
NOAEL [1, 5]: 3.76 mg/kg-day

CCOC(=O)c1ccc(O)cc1 [Ethylparaben]
NOAEL ([1]; subchronic, duration: 8 weeks, M, Wistar, no effects): 1040 mg/kg-day

O=C(O)c1cc(O)c(O)c(O)c1 [Gallic acid]
NOAEL ([1]; subchronic, duration: 13 weeks, oral, M/F, organ weight): 119 mg/kg-day

Cc1occc1S [2-Methyl-3-furanthiol]
NOAEL [1, 10]: 5 mg/kg-day

O=C1CCc2ccccc2O1 [3,4-Dihydrocoumarin]
NOAEL ([1]; chronic, duration: 2 years, oral, gavage): 300 mg/kg-day
NOAEL ([1]; subchronic, duration: 13 weeks): 150 mg/kg-day
NOAEL ([1]; subchronic, duration: 13 weeks, hematological): 150 mg/kg-day

C=CCN=C=S [Allyl isothiocyanate]
LOAEL ([1]; chronic, duration: 103 weeks, oral, gavage, M, histopathology: nonneoplastic): 9 mg/kg-day
NOAEL ([1]; chronic, duration: 721 days, oral, gavage, M/F, histopathology: neoplastic): 12 mg/kg-day

Clc1cc(Cl)c(-c2cc(Cl)c(Cl)cc2Cl)cc1Cl [2,2',4,4',5,5'-Hexachlorobiphenyl]
NOAEL [1, 14]: 1.2 mg/kg-day

CCC(=O)c1ccc[nH]1 [2-Propionylpyrrole]
NOAEL [1, 11]: 0.048 mg/kg-day
NOAEL [1, 12]: 48 mg/kg-day

NC(N)=NCCC[C@H](N)C(=O)O [L-Arginine]
NOAEL ([1]; subchronic, duration: 13 weeks, M/F, Crj:CD, no effects): 3.13 mg/kg-day

NCCS(=O)(=O)[O-].NCCS(=O)(=O)[O-].[Fe+2] [Iron(II) taurate]
NOAEL [1, 6]: 1000 mg/kg-day

CCNC(=O)C1CC(C)CCC1C(C)C (stereo not drawn) [N-Ethyl-2-(isopropyl)-5-methylcyclohexanecarboxamide]
NOEL ([1]; short-term, duration: 28 days, oral, gavage, M/F, Crj:CD): 8 mg/kg-day

CC1=C[C@H](O)CC(C)(C)[C@H]1/C=C/C(C)=C/C=C/C(C)=C/C=C/C=C(C)/C=C/C=C(C)/C=C/C1=C(C)C[C@@H](O)CC1(C)C [Lutein A]
LEL ([1]; subchronic, duration: 13 weeks, oral, no effects): 260 mg/kg-day
NOAEL [1, 13]: 200 mg/kg-day

CC(=O)c1nccs1 [2-Acetylthiazole]
NOAEL ([1]; subchronic, duration: 90 days, oral, diet, body weight): 50 mg/kg-day

CC(/C=C/C=C(C)/C=C/C(=O)[O-])=C\C=C\C=C(C)\C=C\C=C(C)\C=C\C(=O)[O-].[K+].[K+] [Dipotassium 6,6'-diapo-psi,psi-carotenedioate]
NOAEL ([1]; subchronic, duration: 13 weeks, oral, diet, M/F, Sprague-Dawley, clinical chemistry): 30 mg/kg-day

NCCCCN [Putrescine]
LD50 ([1]; oral, F, mortality): 463 mg/kg
